These results are taken from patent US5578616A, “Phenyl-alkyl-imidazoles” (Schering Corporation, priority 1995, dated 1996).

pKi: −log10 of the molar value. Where two headings read alike, the source gives them in different places.

In test [1] the target is T1, H3 receptor (Cavia porcellus, UniProt Q9JI35).
T1 construct: The source of the H3 receptors in this experiment was guinea pig brain; from tissue; host or cells: guinea pig brain membranes
The test can be described thus: H3 Receptor Binding Assay. On the set-up: species or system guinea pig. The settings on record: for inhibition at 2 µg/mL: pH 7.5, read-out: Inhibition of binding of radioactive ligand, Inhibition (%) at 2 μg/ml. The method, then:
The source of the H3 receptors in this experiment was guinea pig brain. The animals weighed 400-600 g. The brain tissue was homogenized using a Polytron in a solution of 50 mM Tris, pH 7.5. The final concentration of tissue in the homogenization buffer was 10% w/v. The homogenates were centrifuged at 1,000× g for 10 min. in order to remove clumps of tissue and debris. The resulting supernatants were then centrifuged at 50,000× g for 20 min. in order to sediment the membranes, which were next washed three times in homogenization buffer (50,000× g for 20 min. each). The membranes were frozen and stored at -70° C. until needed.
All compounds to be tested were dissolved in DMSO and then diluted into the binding buffer (50 mM Tris, pH 7.5) such that the final concentration was 2 μg/mL with 0.1% DMSO. Membranes were then added (400 μg of protein) to the reaction tubes. The reaction was started by the addition of 3 nM [^3 H]R-α-methylhistamine (8.8 Ci/mmol) or 3 nM [^3 H]N^α -methylhistamine (80 Ci/mmol) and continued under incubation at 30° C. for 30 min. Bound ligand was separated from unbound ligand by filtration, and the amount of radioactive ligand bound to the membranes was quantitated by liquid scintillation spectrometry. All incubations were performed in duplicate and the standard error was always less than 10%. Compounds that inhibited more than 70% of the specific binding of radioactive ligand to the receptor were serially diluted to determine a Ki (μM).

The subject of test [2] is histamine H3 receptor. The settings on record: mice, cited from earlier work.
For test [3], the system named is H3 receptors. As to conditions: rat; cited from earlier work.
Setting [4] is: guinea pig brain membranes, 3 nM [^3 H]R-α-methylhistamine or 3 nM [^3 H]N^α -methylhistamine, 30° C., 30 min, pH 7.5, read-out: Ki.

The term pKi denotes the negative decadic logarithm of the Ki, by convention in mol/L.

T1 sequence (Q9JI35 whole entry): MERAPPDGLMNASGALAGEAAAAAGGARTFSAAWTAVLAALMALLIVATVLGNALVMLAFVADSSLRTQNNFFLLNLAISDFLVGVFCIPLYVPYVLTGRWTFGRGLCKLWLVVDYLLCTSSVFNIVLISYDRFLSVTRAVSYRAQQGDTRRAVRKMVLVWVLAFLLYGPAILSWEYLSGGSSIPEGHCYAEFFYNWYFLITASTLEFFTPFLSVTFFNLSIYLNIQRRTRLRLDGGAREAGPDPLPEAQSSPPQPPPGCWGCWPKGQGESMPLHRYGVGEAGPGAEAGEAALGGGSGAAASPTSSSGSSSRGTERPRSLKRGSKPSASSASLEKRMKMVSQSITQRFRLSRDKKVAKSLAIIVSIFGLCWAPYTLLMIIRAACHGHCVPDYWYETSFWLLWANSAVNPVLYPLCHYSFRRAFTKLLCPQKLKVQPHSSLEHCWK

For `O=C(OCc1ccc(Cc2c[nH]cn2)cc1)c1ccc(Cl)cc1` [Compound 40, [4-(1H-Imidazol-4-ylmethyl)phenyl]methyl 4-chlorobenzoate], the inhibition at 2 µg/mL in test [1] was determined as 10%.
Regarding `N=C(Cc1ccc(Cc2c[nH]cn2)cc1)NCc1ccc(Cl)cc1` [Compound 29, N-[(4-Chlorophenyl)methyl]-4-[(1H-imidazol-4-yl)methyl]benzene ethanimidamide], the pKi in test [1] (setting [4]) was 8.14.
Regarding `O=C(NCc1ccc(Cl)cc1)c1ccc(Cc2c[nH]cn2)cc1` [Compound 33, N-[(4-Chlorophenyl)methyl]-4-(1H-imidazol-4-ylmethyl)benzamide], the inhibition at 2 µg/mL in test [1] came out at 61%.
In the case of `O=C(OCc1ccc(Cl)cc1)c1ccc(Cc2c[nH]cn2)cc1` [Compound 43, (4-Chlorophenyl)methyl 4-(1H-imidazol-4-ylmethyl)benzoate], the inhibition at 2 µg/mL in test [1] was 16 to 78%.
Regarding `Clc1ccc(COCc2ccc(Cc3c[nH]cn3)cc2)cc1` [Compound 36, 4-[[4-[[(4-Chlorophenyl)methoxy]methyl]phenyl]methyl]-1H-imidazole], the inhibition at 2 µg/mL in test [1] was in the range of 6 to 87%.
In test [1], `O=C(Nc1ccc(Cl)cc1)OCc1ccc(Cc2c[nH]cn2)cc1` [Compound 38, [4-(1H-Imidazol-4-ylmethyl)phenyl]methyl N-(4-chlorophenyl)carbamate] showed a negative logarithm of the Ki (pKi) of 7.62.
On to `N=C(NCc1ccncc1)c1ccc(Cc2c[nH]cn2)cc1` [Compound 6c, N-[(4-Pyridyl)methyl]-4-[(1H-imidazol-4-yl)methyl]benzene methanimidamide], for which the inhibition at 2 µg/mL in test [1] worked out at 48%.
Molecule `N=C(CCc1ccc(Cc2cnc[nH]2)cc1)NCc1ccc(Cl)cc1` [Compound 27, N-[(4-Chlorophenyl)methyl]-4-[(1H-imidazol-4-yl)methyl]benzene propanimidamide] gave a pKi in test [1] of 6.74.
Turning to `N=C(NCc1ccc(C(F)(F)F)cc1)c1ccc(Cc2c[nH]cn2)cc1` [Compound 6b, N-[(4-trifluoromethylphenyl)methyl]-4-[(1H-imidazol-4-yl)methyl]benzenemethanimidamide], in test [1] (setting [4]), the pKi was 6.85.
Take `N=C(N)c1cccc(Cc2c[nH]cn2)c1` [Compound 10, 3-[(1H-Imidazol-4-yl)methyl]benzene methanimidamide]: in test [1] (setting [4]), the pKi is 6.51.
On to `N=C(NCCc1ccccc1)c1ccc(Cc2c[nH]cn2)cc1` [Compound 6d, N-(2-Phenylethyl)-4-[(1H-imidazol-4-yl)methyl]benzene methanimidamide], for which the negative-log Ki (pKi) in test [1] (setting [4]) is 6.35.
For the molecule `N=C(N)c1ccc(Cc2c[nH]cn2)cc1` [Compound 9, 4-[(1H-Imidazol-4-yl)methyl]benzene methanimidamide], in test [1] (setting [4]), the pKi is 7.42.
In test [1], `N=C(NCc1ccc(Cl)cc1)c1ccc(Cc2c[nH]cn2)cc1` [Compound 6, N-[(4-Chlorophenyl)methyl]-4-[(1H-imidazol-4-yl)methyl]benzene methanimidamide] had a pKi of 7.85.
`COc1ccc(C/N=C(\N)c2ccc(Cc3c[nH]cn3)cc2)cc1` [Compound 6a, N-[(4-Methoxyphenyl)methyl]-4-[(1H-imidazol-4-yl)methyl]benzene methanimidamide]: in test [1], the pKi is 6.25.
On to `N=C(N)c1cccc(CCc2c[nH]cn2)c1` [Compound 16, 3-[(1H-Imidazol-4-yl)ethyl]benzene methanimidamide], for which the pKi in test [1] (setting [4]) is 6.66.
As to `N=C(N)c1ccc(CCc2cnc[nH]2)cc1` [Compound 17, 4-[(1H-Imidazol-4-yl)ethyl]benzene methanimidamide], the pKi in test [1] (setting [4]) is 6.77.
As for `S=C(NC1CCCCC1)N1CCC(c2cnc[nH]2)CC1` [thioperamide], the “duration of each phase of convulsion” value in test [2] (electrically induced convulsions) is on record as “decreased the duration of each phase of convulsion”. Moreover, the electroconvulsive threshold entry in test [2] is on record as “raised the electroconvulsive threshold”. Besides, the “short-term memory and reversal learning” value in test [3] is “can improve short-term memory and reversal learning”.
In the case of `NCc1ccc(Cc2c[nH]cn2)cc1` [Compound 21, 4-[(1H-Imidazol-4-yl)methyl]benzenemethanamine], in test [1], the pKi was 7.11.
